In US20240041042A1, “1-(PYRIDYL)-5-AZINYLPYRAZOLE DERIVATIVES, AND THEIR USE FOR CONTROL OF UNDESIRED PLANT GROWTH” (Bayer Aktiengesellschaft, priority 2020, published 2024):
Read-outs that look alike come from different tables or passages of the source. One block for each compound: values may come before it.

Key:
Type in all cases: in vivo
[1] = tested on: Glycine max (GLXMA); test: Post-emergence crop plant compatibility, GLXMA
Method: (§1) Seeds of monocotyledonous and dicotyledonous weeds and crop plants are placed in sandy loam in plastic or organic planting pots, covered with soil and cultivated in a greenhouse under controlled growth conditions. 2 to 3 weeks after sowing, the test plants are treated at the one-leaf stage. The compounds of the invention, formulated in the form of wettable powders (WP) or as emulsion concentrates (EC), are then sprayed onto the green parts of the plants as aqueous suspension or emulsion with addition of 0.5% additive at a water application rate of 600 l/ha (converted). After the test plants have been kept in the greenhouse under optimum growth conditions for about 3 weeks, the activity of the preparations is rated visually in comparison to untreated controls. For example, 100% activity=the plants have died, 0% activity=like control plants.
(§2) The observed effects on selected crop plants are reported here in comparison to the untreated controls (values in %). The appendices “a”, “b” and “c” give differentiation by dosage used with otherwise the same crop plants tested.

[2] = tested on: Setaria viridis (SETVI); test: Post-emergence herbicidal action against SETVI
Summary of the method: (§3)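 Post-emergence greenhouse spray, one-leaf stage, 600 l/ha water plus 0.5% additive; WP or EC formulations; application rates 320 g/ha or lower. Visual % damage vs untreated controls at ~3 weeks.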

[3] = tested on: Amaranthus retroflexus (AMARE); test: Post-emergence herbicidal action against AMARE
Summary of the method: as §3

[4] = tested on: Viola tricolor (VIOTR); test: Post-emergence herbicidal action against VIOTR
Summary of the method: as §3

[5] = tested on: Zea mays (ZEAMX); conditions: for Post-emergence action against ZEAMX in %: crop plant compatibility, effect vs untreated controls; for Post-emergence action against ZEAMX in % (crop plant compatibility): 20 g/ha, effect in comparison to untreated controls
Summary of the method: (§4)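 Visual rating (% effect vs. untreated plants; 100% = plant death) made about 3 weeks after treatment. Plants had been sprayed at one-leaf stage, 2–3 weeks post-sowing, with aqueous WP/EC preparations containing 0.5% additive, 600 l/ha water volume; a, b, c mark dose levels.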

[6] = tested on: Triticum aestivum (TRZAS); conditions: crop plant compatibility, effect vs untreated controls
Summary of the method: as §4

[7] = tested on: Oryza sativa (ORYSA); conditions: crop plant compatibility
Summary of the method: as §4

[8] = tested on: Amaranthus retroflexus (AMARE); test: Pre-emergence herbicidal action against AMARE; conditions: visual scoring after about 3 weeks vs untreated controls
Summary of the method: (§5)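 Dosages of 320 g/ha or less; pre-emergence; WP or EC in aqueous spray, 0.5% additive, 600 l/ha; greenhouse; visual % effect after ~3 wk relative to control pots.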

[9] = tested on: Polygonum convolvulus (POLCO); test: Post-emergence herbicidal action against POLCO; conditions: dosage 320 g/ha
Summary of the method: as §3

[10] = tested on: Brassica napus (BRSNW); conditions: 80 g/ha, crop plant compatibility, in comparison to untreated controls
Summary of the method: (§6)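 Crop injury rated visually in percent against untreated plants roughly 3 weeks after treatment (0% no effect, 100% plants dead). Compounds, as WP or EC with 0.5% additive in 600 l/ha water, were applied to the covering soil right after sowing; greenhouse growth. Suffixes a, b, c denote different dosages.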

[11] = tested on: Glycine max (GLXMA); conditions: pre-emergence, crop plant compatibility, in comparison to untreated controls
Summary of the method: as §6

[12] = tested on: Triticum aestivum (TRZAS); conditions: pre-emergence, crop plant compatibility, in comparison to untreated controls
Summary of the method: as §6

[13] = tested on: Oryza sativa (ORYSA); conditions: pre-emergence, 80 g/ha, crop plant compatibility, in comparison to untreated controls
Summary of the method: as §6

[14] = tested on: Verconica persica (VERPE); test: Post-emergence herbicidal action against VERPE
Summary of the method: as §3

[15] = tested on: Avena fatua (AVEFA); test: Post-emergence herbicidal action against AVEFA; conditions: visual rating about 3 weeks after treatment
Summary of the method: as §3

[16] = tested on: Matricaria inodora (MATIN); test: Post-emergence herbicidal action against MATIN; conditions: dosage 320 g/ha
Summary of the method: as §3

[17] = tested on: Digitaria sanguinalis (DIGSA); test: Post-emergence herbicidal action against DIGSA; conditions: 320 g/ha, visual rating about 3 weeks after treatment
Summary of the method: as §3

[18] = tested on: Lolium rigidum (LOLRI); test: Post-emergence herbicidal action against LOLRI
Summary of the method: as §3

[19] = tested on: Alopecurus myosuroides (ALOMY); test: Post-emergence herbicidal action against ALOMY; conditions: visual rating about 3 weeks after treatment vs untreated controls (100% = plants have died, 0% = like control plants)
Summary of the method: as §3

[20] = tested on: Brassica napus (BRSNW); test: Post-emergence crop plant compatibility, BRSNW; conditions: 20 g/ha, effect in comparison to untreated controls
Method: as §1, §2

[21] = tested on: Echinochloa crus-galli (ECHCG); test: Post-emergence herbicidal action against ECHCG
Summary of the method: as §3

[22] = tested on: Pharbitis purpurea (PHBPU); test: Post-emergence herbicidal action against PHBPU
Summary of the method: as §3

[23] = tested on: Abutilon theophrasti (ABUTH); test: Post-emergence herbicidal action against ABUTH; conditions: 320 g/ha, visual rating about 3 weeks after treatment vs untreated controls (100% = plants have died, 0% = like control plants)
Summary of the method: as §3

[24] = tested on: Alopecurus myosuroides (ALOMY); test: Pre-emergence herbicidal action against ALOMY; conditions: scored visually after about 3 weeks, 100% = plants have died
Summary of the method: as §5

[25] = tested on: Setaria viridis (SETVI); test: Pre-emergence herbicidal action against SETVI; conditions: dosage 320 g/ha
Summary of the method: as §5

[26] = tested on: Polygonum convolvulus (POLCO); test: Pre-emergence herbicidal action against POLCO
Summary of the method: as §5

[27] = tested on: Echinochloa crus-galli (ECHCG); test: Pre-emergence herbicidal action against ECHCG; conditions: dosage 320 g/ha
Summary of the method: as §5

[28] = tested on: Viola tricolor (VIOTR); test: Pre-emergence herbicidal action against VIOTR
Summary of the method: as §5

[29] = tested on: Verconica persica (VERPE); test: Pre-emergence herbicidal action against VERPE; conditions: dosage 320 g/ha
Summary of the method: as §5

[30] = tested on: Avena fatua (AVEFA); test: Pre-emergence herbicidal action against AVEFA; conditions: 320 g/ha, visual scoring after about 3 weeks vs untreated controls
Summary of the method: as §5

[31] = tested on: Zea mays (ZEAMX); conditions: pre-emergence, 80 g/ha, crop plant compatibility, in comparison to untreated controls
Summary of the method: as §6

[32] = tested on: Lolium rigidum (LOLRI); test: Pre-emergence herbicidal action against LOLRI; conditions: dosage 320 g/ha
Summary of the method: as §5

[33] = 80 g/ha, effect in comparison to untreated controls
[34] = 20 g/ha, effect vs untreated controls

Post-emergence action against GLXMA ([1]; 320 g/ha, effect vs untreated controls): 0%
Post-emergence action against GLXMA in % ([1]; post-emergence, 80 g/ha, effect in comparison to untreated controls): 0%
Post-emergence action against ZEAMX in % ([5]; 80 g/ha): 0%
Post-emergence action against ZEAMX in % ([5]; 320 g/ha): 0%
Post-emergence action against TRZAS in % ([6]; 80 g/ha): 0%
Post-emergence action against TRZAS in % ([6]; 320 g/ha): 10%
Post-emergence action against ORYSA in % [7, 33]: 0%
Post-emergence action against ORYSA in % ([7]; 320 g/ha, effect in comparison to untreated controls): 0%
Pre-emergence action against BRSNW in % [10]: 0%
Pre-emergence action against GLXMA in % ([11]; 80 g/ha): 0%
Pre-emergence action against GLXMA in % ([11]; 320 g/ha): 0%
Pre-emergence action against TRZAS in % ([12]; 80 g/ha): 0%
Pre-emergence action against TRZAS in % ([12]; 320 g/ha): 0%
Pre-emergence action against ORYSA in % [13]: 20%
SMILES: CCOC(=O)C[S+]([O-])c1nn(-c2ccccn2)c(-c2cncc(F)c2)c1Cl (centres unmarked) [Example I-150]
Post-emergence action against SETVI in % ([2]; dosage 320 g/ha): 80%
Post-emergence action against AMARE in % ([3]; 80 g/ha, visual rating about 3 weeks after treatment vs untreated controls (100% = plants have died, 0% = like control plants)): 80%
Post-emergence action against AMARE in % ([3]; 320 g/ha, visual rating about 3 weeks after treatment): 80%
Post-emergence action against VIOTR in % ([4]; 320 g/ha): 80%
Pre-emergence action against AMARE in % ([8]; 320 g/ha): 80%
Post-emergence action against POLCO in % [9]: 90%

Post-emergence action against BRSNW in % [20]: 20%
Post-emergence action against ZEAMX in % (crop plant compatibility) [5]: 0%
Post-emergence action against ZEAMX in % ([5]; 80 g/ha): 10%
Post-emergence action against TRZAS in % ([6]; 20 g/ha): 20%
Post-emergence action against ORYSA in % [7, 34]: 0%
Post-emergence action against ORYSA in % [7, 33]: 10%
SMILES: O=C(COc1nn(-c2ncccc2F)c(-c2ccc(F)nc2)c1C1CC1)OCC1CCOC1 (centres unmarked) [Example I-289]
Post-emergence action against VERPE in % ([14]; 320 g/ha, VERPE): 80%
Post-emergence action against VERPE in % ([14]; dosage 80 g/ha): 80%
Post-emergence action against AVEFA in % ([15]; 80 g/ha): 80%
Post-emergence action against AVEFA in % ([15]; 320 g/ha): 90%
Post-emergence action against MATIN in % [16]: 90%
Post-emergence action against DIGSA in % [17]: 80%
Post-emergence action against LOLRI in % ([18]; dosage 80 g/ha): 80%
Post-emergence action against LOLRI in % ([18]; dosage 320 g/ha): 90%
Post-emergence action against ALOMY in % ([19]; 80 g/ha): 80%
Post-emergence action against ALOMY in % ([19]; 320 g/ha): 90%
Post-emergence action against SETVI in % ([2]; dosage 80 g/ha): 90%
Post-emergence action against SETVI in % ([2]; dosage 320 g/ha): 90%
Post-emergence action against ECHCG in % ([21]; dosage 80 g/ha): 80%
Post-emergence action against ECHCG in % ([21]; dosage 320 g/ha): 80%
Post-emergence action against VIOTR in % ([4]; 80 g/ha): 80%
Post-emergence action against VIOTR in % ([4]; 320 g/ha): 80%
Post-emergence action against PHBPU in % ([22]; dosage 80 g/ha): 80%
Post-emergence action against PHBPU in % ([22]; dosage 320 g/ha): 80%
Post-emergence action against ABUTH in % [23]: 80%
Post-emergence action against POLCO in % [9]: 80%

Post-emergence action against BRSNW in % [20]: 10%
Post-emergence action against ZEAMX in % (crop plant compatibility) [5]: 10%
Post-emergence action against ZEAMX in % ([5]; 80 g/ha): 10%
Post-emergence action against TRZAS in % ([6]; 20 g/ha): 10%
Post-emergence action against ORYSA in % [7, 34]: 20%
Post-emergence action against ORYSA in % [7, 33]: 20%
Pre-emergence action against ZEAMX in % [31]: 20%
SMILES: CCOC(=O)CCNC(=O)COc1nn(-c2ncccc2F)c(-c2ccc(OC)nc2)c1Br [Example I-47]
Pre-emergence action against ALOMY ([24]; 80 g/ha): 90%
Pre-emergence action against ALOMY ([24]; 320 g/ha): 90%
Pre-emergence action against SETVI in % [25]: 100%
Post-emergence action against SETVI in % ([2]; dosage 80 g/ha): 90%
Pre-emergence action against POLCO in % ([26]; dosage 80 g/ha): 80%
Pre-emergence action against POLCO in % ([26]; dosage 320 g/ha): 90%
Post-emergence action against ECHCG in % ([21]; dosage 80 g/ha): 80%
Pre-emergence action against ECHCG in % [27]: 90%
Pre-emergence action against VIOTR in % ([28]; 320 g/ha, Viola tricolor): 100%
Pre-emergence action against VIOTR in % ([28]; dosage 80 g/ha): 100%
Pre-emergence action against VERPE in % [29]: 90%
Pre-emergence action against AMARE in % ([8]; 80 g/ha): 100%
Pre-emergence action against AMARE in % ([8]; 320 g/ha): 100%
Pre-emergence action against AVEFA in % [30]: 90%
Pre-emergence action against LOLRI in % [32]: 100%
